Laboratory results from patent US9474790B2, “Stable, protracted GLP-1/glucagon receptor co-agonists for medical use” (Novo Nordisk A/S, priority 2013, dated 2016).
Numbered stars: 1 amine (or outer) side, 2 acyl side, 3 side chain; on linkers, the order of the positions; unused ones are H or OH. Square brackets hold non-standard residues; d marks the D form. Side chains are listed from the residue outwards. Peptide text beside a SMILES is read from it. * marks the point of attachment. C18 diacid = O=C(O)CCCCCCCCCCCCCCCCC(=O)*; γGlu = O=C(O)[C@H](CCC(=O)[*:2])N[*:1]; AEEA = NCCOCCOCC(=O)O; Aib = CC(C)(N)C(=O)O

These compounds were tested against T1, human GLP-1 receptor (Homo sapiens, UniProt P43220) (assay: GLP-1 receptor binding, 125I-GLP-1 displacement SPA on isolated membranes). Conditions: displacement of 125I-GLP-1 from membranes; read-out: IC50 GLP-1R.
T1 construct: expressed in transfected cells; host or cells: BHK cells (parent BHKTS13), clone FCW467-12A/KZ10-1, with CRE luciferase
How it was run: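 SPA displacement of 125I-GLP-1(7-36)NH2 from membranes of BHK cells expressing human GLP-1 receptor, with WGA beads, in 50 mM HEPES, 5 mM EGTA, 5 mM MgCl2, 0.005% Tween 20, pH 7.4. Incubated 2 h at 30°C; IC50 by non-linear regression, run at ≤0.001% or 2.0% final serum albumin.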

T1 sequence (P43220 24-463): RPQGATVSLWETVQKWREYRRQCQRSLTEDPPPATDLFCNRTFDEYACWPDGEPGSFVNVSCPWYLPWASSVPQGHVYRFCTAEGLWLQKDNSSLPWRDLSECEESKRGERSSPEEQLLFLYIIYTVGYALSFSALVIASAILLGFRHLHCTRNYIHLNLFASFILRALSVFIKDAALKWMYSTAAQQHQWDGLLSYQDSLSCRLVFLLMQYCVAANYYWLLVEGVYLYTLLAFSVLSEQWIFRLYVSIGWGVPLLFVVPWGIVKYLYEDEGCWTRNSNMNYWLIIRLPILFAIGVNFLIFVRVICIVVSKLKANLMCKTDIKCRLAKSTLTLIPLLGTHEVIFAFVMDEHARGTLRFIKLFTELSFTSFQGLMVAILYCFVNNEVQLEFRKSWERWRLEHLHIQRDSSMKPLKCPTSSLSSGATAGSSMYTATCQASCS

Compound	IC50
CC(C)C[C@H](NC(=O)[C@H](CC(=O)O)NC(=O)[C@H](CC(C)C)NC(=O)[C@H](Cc1ccc(O)cc1)NC(=O)[C@H](CCCCN)NC(=O)[C@H](CO)NC(=O)[C@H](CC(C)C)NC(=O)[C@H](CC(=O)O)NC(=O)[C@H](CO)NC(=O)[C@@H](NC(=O)[C@H](Cc1ccccc1)NC(=O)[C@@H](NC(=O)CNC(=O)[C@H](CCC(N)=O)NC(=O)C(C)(C)NC(=O)[C@@H](N)Cc1c[nH]cn1)[C@@H](C)O)[C@@H](C)O)C(=O)N[C@@H](CCCNC(=N)N)C(=O)N[C@@H](CCCNC(=N)N)C(=O)N[C@@H](C)C(=O)N[C@@H](CCCNC(=N)N)C(=O)N[C@@H](CC(=O)O)C(=O)N[C@@H](Cc1ccccc1)C(=O)N[C@H](C(=O)N[C@@H](CCC(N)=O)C(=O)N[C@@H](Cc1c[nH]c2ccccc12)C(=O)N[C@@H](CC(C)C)C(=O)N[C@@H](CC(C)C)C(=O)N[C@@H](CCCCNC(=O)CNC(=O)[C@H](CO)NC(=O)[C@H](CCC(=O)O)NC(=O)[C@H](CO)NC(=O)CC[C@H](NC(=O)CC[C@H](NC(=O)CCCCCCCCCCCCCCCCC(=O)O)C(=O)O)C(=O)O)C(=O)N[C@H](C(N)=O)[C@@H](C)O)C(C)C [Example 55, N^ε28-[2-[[(2S)-2-[[(2S)-4-carboxy-2-[[(2S)-2-[[(4S)-4-carboxy-4-[[(4S)-4-carboxy-4-(17-carboxyheptadecanoylamino)butanoyl]amino]butanoyl]amino]-3-hydroxypropanoyl]amino]butanoyl]amino]-3-hydroxypropanoyl]amino]acetyl]-[Aib2,Leu10,Leu16,Arg20,Leu27,Lys28]-Glucagon amide] (H-H[Aib]QGTFTSDLSKYLDLRRARDFVQWLLK([Gly-Ser-Glu-Ser-γGlu-γGlu-C18 diacid])T-NH2; N-terminus assumed)	1.1 nM
CC(C)C[C@H](NC(=O)[C@H](CC(C)C)NC(=O)[C@H](Cc1c[nH]c2ccccc12)NC(=O)[C@H](CCC(N)=O)NC(=O)[C@@H](NC(=O)[C@H](Cc1ccccc1)NC(=O)[C@H](CCC(=O)O)NC(=O)[C@H](CCCNC(=N)N)NC(=O)[C@H](C)NC(=O)[C@H](CCCNC(=N)N)NC(=O)[C@H](CCCNC(=N)N)NC(=O)[C@H](CO)NC(=O)[C@H](CCC(=O)O)NC(=O)[C@H](CC(C)C)NC(=O)[C@H](Cc1ccc(O)cc1)NC(=O)[C@H](CCCCN)NC(=O)[C@H](CO)NC(=O)[C@H](CC(C)C)NC(=O)[C@H](CC(=O)O)NC(=O)[C@H](CO)NC(=O)[C@@H](NC(=O)[C@H](Cc1ccccc1)NC(=O)[C@@H](NC(=O)CNC(=O)[C@H](CCC(N)=O)NC(=O)C(C)(C)NC(=O)[C@@H](N)Cc1c[nH]cn1)[C@@H](C)O)[C@@H](C)O)C(C)C)C(=O)N[C@@H](CC(N)=O)C(=O)N[C@@H](CCCCNC(=O)CC[C@H](NC(=O)CC[C@H](NC(=O)COCCOCCNC(=O)CC[C@H](NC(=O)CCCCCCCCCCCCCCCCC(=O)O)C(=O)O)C(=O)O)C(=O)O)C(N)=O [Example 40, N^ε29-[(4S)-4-carboxy-4-[[(4S)-4-carboxy-4-[[2-[2-[2-[[(4S)-4-carboxy-4-(17-carboxyheptadecanoylamino)butanoyl]amino]ethoxy]ethoxy]acetyl]amino]butanoyl]amino]butanoyl]-[Aib2,Leu10,Glu15,Arg20,Glu21,Leu27,Lys29]-Glucagon amide] (H-H[Aib]QGTFTSDLSKYLESRRAREFVQWLLNK([γGlu-γGlu-AEEA-γGlu-C18 diacid])-NH2; N-terminus assumed)	0.4 nM
CC(C)C[C@H](NC(=O)[C@H](Cc1ccc(O)cc1)NC(=O)[C@H](CCCCN)NC(=O)[C@H](CO)NC(=O)[C@H](CC(C)C)NC(=O)[C@H](CC(=O)O)NC(=O)[C@H](CO)NC(=O)[C@@H](NC(=O)[C@H](Cc1ccccc1)NC(=O)[C@@H](NC(=O)CNC(=O)[C@H](CCC(N)=O)NC(=O)C(C)(C)NC(=O)[C@@H](N)Cc1c[nH]cn1)[C@@H](C)O)[C@@H](C)O)C(=O)N[C@@H](CC(=O)O)C(=O)N[C@@H](CCCCNC(=O)CC[C@H](NC(=O)CC[C@H](NC(=O)COCCOCCNC(=O)COCCOCCNC(=O)CC[C@H](NC(=O)CCCCCCCCCCCCCCCCC(=O)O)C(=O)O)C(=O)O)C(=O)O)C(=O)N[C@@H](CCCNC(=N)N)C(=O)N[C@@H](CCCNC(=N)N)C(=O)N[C@@H](C)C(=O)N[C@@H](CCCNC(=N)N)C(=O)N[C@@H](CCC(=O)O)C(=O)N[C@@H](Cc1ccccc1)C(=O)N[C@H](C(=O)N[C@@H](CCC(N)=O)C(=O)N[C@@H](Cc1c[nH]c2ccccc12)C(=O)N[C@@H](CC(C)C)C(=O)N[C@@H](CC(C)C)C(=O)N[C@@H](CC(N)=O)C(=O)N[C@H](C(N)=O)[C@@H](C)O)C(C)C [Example 10, N^ε16-[(4S)-4-carboxy-4-[[(4S)-4-carboxy-4-[[2-[2-[2-[[2-[2-[2-[[(4S)-4-carboxy-4-(17-carboxyheptadecanoylamino)butanoyl]amino]ethoxy]ethoxy]acetyl]amino]ethoxy]ethoxy]acetyl]amino]butanoyl]amino]butanoyl]-[Aib2,Leu10,Lys16,Arg20,Glu21,Leu27]-Glucagon amide] (H-H[Aib]QGTFTSDLSKYLDK([γGlu-γGlu-AEEA-AEEA-γGlu-C18 diacid])RRAREFVQWLLNT-NH2; N-terminus assumed)	0.5 nM
CC(C)C[C@H](NC(=O)[C@H](Cc1ccc(O)cc1)NC(=O)[C@H](CCCCN)NC(=O)[C@H](CO)NC(=O)[C@H](CC(C)C)NC(=O)[C@H](CC(=O)O)NC(=O)[C@H](CO)NC(=O)[C@@H](NC(=O)[C@H](Cc1ccccc1)NC(=O)[C@@H](NC(=O)CNC(=O)[C@H](Cc1c[nH]cn1)NC(=O)C(C)(C)NC(=O)[C@@H](N)Cc1c[nH]cn1)[C@@H](C)O)[C@@H](C)O)C(=O)N[C@@H](CCC(=O)O)C(=O)N[C@@H](CO)C(=O)N[C@@H](CCCNC(=N)N)C(=O)N[C@@H](CCCNC(=N)N)C(=O)N[C@@H](C)C(=O)N[C@@H](CCCNC(=N)N)C(=O)N[C@@H](CCC(=O)O)C(=O)N[C@@H](Cc1ccccc1)C(=O)N[C@H](C(=O)N[C@@H](CCC(N)=O)C(=O)N[C@@H](Cc1c[nH]c2ccccc12)C(=O)N[C@@H](CC(C)C)C(=O)N[C@@H](CC(C)C)C(=O)N[C@@H](CCCCNC(=O)CC[C@H](NC(=O)COCCOCCNC(=O)COCCOCCNC(=O)CC[C@H](NC(=O)CC[C@H](NC(=O)CCCCCCCCCCCCCCCCC(=O)O)C(=O)O)C(=O)O)C(=O)O)C(=O)N[C@H](C(N)=O)[C@@H](C)O)C(C)C [Example 30, N^ε28-[(4S)-4-carboxy-4-[[2-[2-[2-[[2-[2-[2-[[(4S)-4-carboxy-4-[[(4S)-4-carboxy-4-(17-carboxyheptadecanoylamino)butanoyl]amino]butanoyl]amino]ethoxy]ethoxy]acetyl]amino]ethoxy]ethoxy]acetyl]amino]butanoyl]-[Aib2,His3,Leu10,Glu15,Arg20,Glu21,Leu27,Lys28]-Glucagon amide] (H-H[Aib]HGTFTSDLSKYLESRRAREFVQWLLK([γGlu-AEEA-AEEA-γGlu-γGlu-C18 diacid])T-NH2; N-terminus assumed)	1.4 nM
CC(C)C[C@H](NC(=O)[C@H](CC(C)C)NC(=O)[C@H](Cc1c[nH]c2ccccc12)NC(=O)[C@H](CCC(N)=O)NC(=O)[C@@H](NC(=O)[C@H](Cc1ccccc1)NC(=O)[C@H](CCC(=O)O)NC(=O)[C@H](CCC(N)=O)NC(=O)[C@H](C)NC(=O)[C@H](C)NC(=O)[C@H](CCCCN)NC(=O)[C@H](CO)NC(=O)[C@H](CC(=O)O)NC(=O)[C@H](CC(C)C)NC(=O)[C@H](Cc1ccc(O)cc1)NC(=O)[C@H](CCCCN)NC(=O)[C@H](CO)NC(=O)[C@H](CC(C)C)NC(=O)[C@H](CC(=O)O)NC(=O)[C@H](CO)NC(=O)[C@@H](NC(=O)[C@H](Cc1ccccc1)NC(=O)[C@@H](NC(=O)CNC(=O)[C@H](CCC(N)=O)NC(=O)C(C)(C)NC(=O)[C@@H](N)Cc1c[nH]cn1)[C@@H](C)O)[C@@H](C)O)C(C)C)C(=O)N[C@@H](CC(N)=O)C(=O)N[C@@H](CCCCNC(=O)CC[C@H](NC(=O)CC[C@H](NC(=O)COCCOCCNC(=O)COCCOCCNC(=O)CC[C@H](NC(=O)CCCCCCCCCCCCCCCCC(=O)O)C(=O)O)C(=O)O)C(=O)O)C(N)=O [Example 8, N^ε29-[(4S)-4-carboxy-4-[[(4S)-4-carboxy-4-[[2-[2-[2-[[2-[2-[2-[[(4S)-4-carboxy-4-(17-carboxyheptadecanoylamino)butanoyl]amino]ethoxy]ethoxy]acetyl]amino]ethoxy]ethoxy]acetyl]amino]butanoyl]amino]butanoyl]-[Aib2,Leu10,Lys17,Ala18,Glu21,Leu27,Lys29]-Glucagon amide] (H-H[Aib]QGTFTSDLSKYLDSKAAQEFVQWLLNK([γGlu-γGlu-AEEA-AEEA-γGlu-C18 diacid])-NH2; N-terminus assumed)	1.1 nM
CC(C)C[C@H](NC(=O)[C@H](Cc1ccc(O)cc1)NC(=O)[C@H](CCCCN)NC(=O)[C@H](CO)NC(=O)[C@H](CC(C)C)NC(=O)[C@H](CC(=O)O)NC(=O)[C@H](CO)NC(=O)[C@@H](NC(=O)[C@H](Cc1ccccc1)NC(=O)[C@@H](NC(=O)CNC(=O)[C@H](CCC(N)=O)NC(=O)C(C)(C)NC(=O)[C@@H](N)Cc1c[nH]cn1)[C@@H](C)O)[C@@H](C)O)C(=O)N[C@@H](CCC(=O)O)C(=O)N[C@@H](CO)C(=O)N[C@@H](CCCNC(=N)N)C(=O)N[C@@H](CCCNC(=N)N)C(=O)N[C@@H](C)C(=O)N[C@@H](CCCNC(=N)N)C(=O)N[C@@H](CCC(=O)O)C(=O)N[C@@H](Cc1ccccc1)C(=O)N[C@H](C(=O)N[C@@H](CCC(N)=O)C(=O)N[C@@H](Cc1c[nH]c2ccccc12)C(=O)N[C@@H](CC(C)C)C(=O)N[C@@H](CC(C)C)C(=O)N[C@@H](CCCCNC(=O)COCCOCCNC(=O)COCCOCCNC(=O)CC[C@H](NC(=O)CC[C@H](NC(=O)CC[C@H](NC(=O)CCCCCCCCCCCCCCCCC(=O)O)C(=O)O)C(=O)O)C(=O)O)C(=O)N[C@H](C(N)=O)[C@@H](C)O)C(C)C [Example 42, N^ε28-[2-[2-[2-[[2-[2-[2-[[(4S)-4-carboxy-4-[[(4S)-4-carboxy-4-[[(4S)-4-carboxy-4-(17-carboxyheptadecanoylamino)butanoyl]amino]butanoyl]amino]butanoyl]amino]ethoxy]ethoxy]acetyl]amino]ethoxy]ethoxy]acetyl]-[Aib2,Leu10,Glu15,Arg20,Glu21,Leu27,Lys28]-Glucagon amide] (H-H[Aib]QGTFTSDLSKYLESRRAREFVQWLLK([AEEA-AEEA-γGlu-γGlu-γGlu-C18 diacid])T-NH2; N-terminus assumed)	0.3 nM
